Results reported in PMC8342458, “GluN2A and GluN2B NMDA receptors use distinct allosteric routes” (Nature Communications, 2021).
“And” between values parts separate entries of the source, which are not always exact repeats. Equal entries are not always repeated. Where two headings read alike, the source gives them in different places.

Experiments:
[1] = target: T1, wild-type (wt) GluN1/GluN2A receptors (Rattus norvegicus, UniProt P35439+Q00959); test: TEVC recordings in Xenopus oocytes, allosteric modulator sensitivity; format: cell-based; settings: for Izn/Io 1 nM: 1 nM zinc; for Izn/Io 10 nM: 10 nM zinc; for Izn/Io 50 nM: 50 nM zinc; for Izn/Io 500 nM: 500 nM zinc; for Izn/Io 1000 nM: 1000 nM zinc
T1 construct: For full-length multimeric membrane-embedded receptors studied in cellulo, as done in the present work; expressed in transfected cells; host or cells: Xenopus laevis oocytes (nuclear cDNA injection, pcDNA3 plasmids)
Experimental: (§1) The pcDNA3-based expression plasmids for rat GluN1-1a (named GluN1 herein), rat GluN2A, and mouse GluN2B (also known as ε2) subunits, Pfu-based site-directed mutagenesis strategy, and sequencing procedure have been described previously[68],[69]. Incorporation of the unnatural amino acids (UAAs) AzF and BzF into NMDARs was performed using the genetic code expansion methodology as previously described[52],[53],[83]. The plasmid pSVB.Yam carrying the gene encoding the amber suppressor tRNA derived from B. stearothermophilus Tyr-tRNACUA, while the aminoacyl-tRNA synthetases (aaRS) construction for AzF and BzF derived from E. coli TyrRS[84],[85].
(§2) Recombinant NMDARs were expressed in Xenopus laevis oocytes after nuclear injection of 36 nl of a mixture of cDNAs (at 10–30 ng/μl) encoding various GluN1 and GluN2 subunits (ratio 1:1). Oocytes were prepared, injected, incubated, and voltage-clamped as described previously. For UAA incorporation, oocytes were co-injected with 36 nl of a cDNA mixture encoding for of GluN1, GluN2, Yam, and aaRS as follows, unless otherwise indicated in the text: GluN1-K178amber (120 ng/μl), GluN2A (80 ng/µl) or GluN2B (120 ng/μl), Yam (10 ng/μl), AzF-RS (5 ng/μl). After injection, oocytes were incubated at 19 °C in a Barth solution containing (in mM) 88 NaCl, 1 KCl, 0.33 Ca(NO3)2, 0.41 CaCl2, 0.82 MgSO4, 2.4 NaHCO3, 10 HEPES (pH adjusted to 7.6 with NaOH) supplemented with gentamicin ([…]) and the NMDAR glutamate binding site competitive antagonist D-APV (50 μM). AzF and BzF were added to the incubation medium at final concentrations of 1 mM and 2 mM, respectively.
(§3) For all experiments, except those on pH and spermine sensitivity, the standard external solution contained (in mM): 100 NaCl, 0.3 BaCl2, and 5 HEPES (pH adjusted to 7.3 with KOH). […] For the pH and spermine sensitivity experiments, an external solution enriched in HEPES was used to insure proper pH buffering. Unless otherwise mentioned, NMDAR-mediated currents were induced by simultaneously applications of saturating concentrations of glutamate and glycine (100 μM each). Glutamate and glycine dose-response curves (DRC) were performed in the presence of 100 µM glycine and 100 µM glutamate, respectively. Recordings were performed at a holding potential of −60 mV and at room temperature. Data were collected and analyzed using Clampex 10.5 and Clampfit 10.5 (Molecular Devices), respectively, and fitted using KaleidaGraph 4.0 (Synergy software).
(§4) EC50 and nH were fitted as free parameters. […] For proton DRC, corrections for small shifts in the reference potential of bath electrodes and analysis of the data were performed as previously described. Spermine experiments were performed and analyzed as previously described. In brief, spermine sensitivity was assessed at pH 6.5 and at a holding potential of −30 mV to maximize the spermine induced potentiation. […] EC50, a and nH were set as free parameters. MK-801 is an NMDAR open channel blocker with slow reversibility and, consequently, the rate at which MK-801 inhibits NMDAR responses depends on the level of channel activity, that is, channel open probability (Po). Based on this principle, MK-801 is classically used to estimate the level of NMDAR channel activity in macroscopic whole-cell recordings[36],[47],[56],[86],[87]. Note, however, that MK- 801 inhibition kinetics can index relative, not absolute, Po. MK-801 solutions (10 nM for GluN2A-containing receptors and 50 nM for GluN2B-containing receptors) were prepared by dilution of a stock solution (50 mM) into the agonist containing solutions. MK-801 time constants of inhibition (τon) were obtained by fitting currents with a single-exponential component to a time window corresponding to 10–90% of maximum inhibition. On-rate (kon) constants were then calculated assuming a pseudo first-order reaction scheme: kon = 1 / ([MK-801]*τon).

[2] = target: T2, GluN1-K178AzF/GluN2A receptors (Rattus norvegicus, UniProt P35439+Q00959); test: TEVC recordings in Xenopus oocytes, modulator sensitivity before and after UV photocrosslinking; format: cell-based; settings: read-out: Zn2+ IC50
T2 construct: For full-length multimeric membrane-embedded receptors studied in cellulo, as done in the present work; expressed in transfected cells; host or cells: Xenopus laevis oocytes, co-injected with amber suppressor tRNA (Yam) and AzF-RS
Experimental: as §1, §2, §3, §4

[3] = target: T3, GluN1-K178AzF/GluN2A receptors (Rattus norvegicus, UniProt P35439+Q00959, K178F); test: as above; format: cell-based; settings: for Izn/Io 1 nM: 1 nM zinc; for Izn/Io 10 nM: 10 nM zinc; for Izn/Io 1000 nM: 1000 nM zinc
T3 construct: For full-length multimeric membrane-embedded receptors studied in cellulo, as done in the present work; expressed in transfected cells; host or cells: Xenopus laevis oocytes, co-injected with amber suppressor tRNA (Yam) and AzF-RS
T3 sequence (Q00959 23-1464, other chains not shown): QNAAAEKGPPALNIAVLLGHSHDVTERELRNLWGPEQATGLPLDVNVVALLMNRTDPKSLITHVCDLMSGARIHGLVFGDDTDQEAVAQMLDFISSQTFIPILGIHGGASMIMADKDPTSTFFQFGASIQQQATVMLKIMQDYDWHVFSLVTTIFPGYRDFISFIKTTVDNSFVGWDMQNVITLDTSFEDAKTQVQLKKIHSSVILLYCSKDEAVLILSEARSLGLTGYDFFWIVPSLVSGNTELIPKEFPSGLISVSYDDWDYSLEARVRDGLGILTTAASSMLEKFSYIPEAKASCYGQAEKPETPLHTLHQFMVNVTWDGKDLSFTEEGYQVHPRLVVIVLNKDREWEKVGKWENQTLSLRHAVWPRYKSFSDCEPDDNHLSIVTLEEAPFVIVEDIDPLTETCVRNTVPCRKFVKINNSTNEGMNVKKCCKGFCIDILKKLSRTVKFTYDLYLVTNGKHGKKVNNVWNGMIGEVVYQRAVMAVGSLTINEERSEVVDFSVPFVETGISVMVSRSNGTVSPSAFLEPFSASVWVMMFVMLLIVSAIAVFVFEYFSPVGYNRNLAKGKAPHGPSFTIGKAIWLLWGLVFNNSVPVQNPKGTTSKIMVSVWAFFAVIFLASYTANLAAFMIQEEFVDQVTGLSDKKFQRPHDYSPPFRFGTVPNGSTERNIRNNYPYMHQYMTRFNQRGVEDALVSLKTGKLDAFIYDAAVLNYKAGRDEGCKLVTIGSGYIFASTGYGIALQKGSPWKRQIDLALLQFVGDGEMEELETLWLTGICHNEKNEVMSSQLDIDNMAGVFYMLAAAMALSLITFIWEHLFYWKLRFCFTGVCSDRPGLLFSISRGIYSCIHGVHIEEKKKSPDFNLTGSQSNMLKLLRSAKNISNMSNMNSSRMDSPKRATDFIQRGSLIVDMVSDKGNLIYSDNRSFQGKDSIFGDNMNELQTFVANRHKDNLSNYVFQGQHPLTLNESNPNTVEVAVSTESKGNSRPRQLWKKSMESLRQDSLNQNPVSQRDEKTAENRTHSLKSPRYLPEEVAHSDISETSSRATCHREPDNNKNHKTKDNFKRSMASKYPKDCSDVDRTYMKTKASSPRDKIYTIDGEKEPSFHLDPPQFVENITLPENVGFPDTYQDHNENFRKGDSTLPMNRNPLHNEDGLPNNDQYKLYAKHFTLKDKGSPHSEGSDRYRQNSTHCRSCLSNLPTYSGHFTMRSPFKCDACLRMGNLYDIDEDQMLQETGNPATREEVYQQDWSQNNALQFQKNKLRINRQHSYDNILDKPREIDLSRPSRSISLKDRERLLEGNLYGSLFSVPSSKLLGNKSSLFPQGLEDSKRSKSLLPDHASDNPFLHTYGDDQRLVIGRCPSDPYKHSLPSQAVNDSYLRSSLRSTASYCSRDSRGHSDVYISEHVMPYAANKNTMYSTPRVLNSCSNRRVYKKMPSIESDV
Experimental: as §1, §2, §3, §4

[4] = target: T4, wild-type (wt) GluN1/GluN2B receptors (UniProt P35439+Q01097); test: TEVC recordings in Xenopus oocytes, allosteric modulator sensitivity; format: cell-based, rat (GluN1), mouse (GluN2B)
T4 construct: For full-length multimeric membrane-embedded receptors studied in cellulo, as done in the present work; expressed in transfected cells; host or cells: Xenopus laevis oocytes (nuclear cDNA injection, pcDNA3 plasmids)
T4 sequence (Q01097 27-1482, other chains not shown): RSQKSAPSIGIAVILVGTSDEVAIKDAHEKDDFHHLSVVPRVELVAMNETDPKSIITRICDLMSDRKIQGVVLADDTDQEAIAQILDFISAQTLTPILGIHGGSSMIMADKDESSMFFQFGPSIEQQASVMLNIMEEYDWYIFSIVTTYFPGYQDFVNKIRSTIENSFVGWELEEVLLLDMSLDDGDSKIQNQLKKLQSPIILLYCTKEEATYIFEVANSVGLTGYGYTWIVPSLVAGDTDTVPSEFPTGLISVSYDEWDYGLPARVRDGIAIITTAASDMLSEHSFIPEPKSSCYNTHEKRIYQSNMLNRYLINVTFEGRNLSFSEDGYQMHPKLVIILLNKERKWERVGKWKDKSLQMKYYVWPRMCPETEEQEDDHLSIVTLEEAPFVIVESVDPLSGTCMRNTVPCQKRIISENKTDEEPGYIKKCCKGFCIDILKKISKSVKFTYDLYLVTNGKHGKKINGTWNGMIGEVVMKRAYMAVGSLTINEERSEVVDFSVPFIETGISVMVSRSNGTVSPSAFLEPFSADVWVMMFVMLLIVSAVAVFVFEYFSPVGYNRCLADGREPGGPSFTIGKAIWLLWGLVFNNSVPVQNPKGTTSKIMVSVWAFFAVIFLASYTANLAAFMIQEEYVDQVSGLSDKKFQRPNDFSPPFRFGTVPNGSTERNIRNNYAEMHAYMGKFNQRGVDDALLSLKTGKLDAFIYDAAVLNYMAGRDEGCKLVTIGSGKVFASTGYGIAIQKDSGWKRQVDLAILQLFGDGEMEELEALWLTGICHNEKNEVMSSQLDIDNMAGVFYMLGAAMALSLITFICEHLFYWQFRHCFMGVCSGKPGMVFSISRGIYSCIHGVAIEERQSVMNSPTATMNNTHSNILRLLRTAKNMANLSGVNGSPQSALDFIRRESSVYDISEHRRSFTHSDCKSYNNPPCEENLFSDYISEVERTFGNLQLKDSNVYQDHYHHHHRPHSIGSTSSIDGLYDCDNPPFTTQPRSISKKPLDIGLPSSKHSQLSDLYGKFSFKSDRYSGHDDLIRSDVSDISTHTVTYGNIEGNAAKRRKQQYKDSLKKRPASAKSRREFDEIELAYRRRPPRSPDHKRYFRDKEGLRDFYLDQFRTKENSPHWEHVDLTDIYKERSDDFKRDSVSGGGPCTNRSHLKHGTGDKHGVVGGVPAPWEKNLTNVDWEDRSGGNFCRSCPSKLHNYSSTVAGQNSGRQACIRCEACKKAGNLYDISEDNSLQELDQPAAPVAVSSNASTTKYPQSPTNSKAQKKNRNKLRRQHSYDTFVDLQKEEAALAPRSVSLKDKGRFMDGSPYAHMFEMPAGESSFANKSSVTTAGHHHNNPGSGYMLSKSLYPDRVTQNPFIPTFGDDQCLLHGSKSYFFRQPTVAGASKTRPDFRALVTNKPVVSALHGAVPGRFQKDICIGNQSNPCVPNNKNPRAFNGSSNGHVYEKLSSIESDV
Experimental: as §1, §2, §3, §4

[5] = target: T5, GluN1-K178AzF/GluN2B receptors (UniProt P35439+Q01097); test: TEVC recordings in Xenopus oocytes, modulator sensitivity before and after UV photocrosslinking; format: cell-based, rat (GluN1), mouse (GluN2B); settings: read-out: Zn2+ IC50
T5 construct: For full-length multimeric membrane-embedded receptors studied in cellulo, as done in the present work; expressed in transfected cells; host or cells: Xenopus laevis oocytes, co-injected with amber suppressor tRNA (Yam) and AzF-RS
Experimental: as §1, §2, §3, §4

[6] = target: T6, GluN1-K178AzF/GluN2B receptors (UniProt P35439+Q01097, K178F); test: as above; format: cell-based, rat (GluN1), mouse (GluN2B); settings: for Izn/Io 0.1 μM: 0.1 μM zinc; for Izn/Io 1 μM: 1 μM zinc; for Izn/Io 10 μM: 10 μM zinc
T6 construct: For full-length multimeric membrane-embedded receptors studied in cellulo, as done in the present work; expressed in transfected cells; host or cells: Xenopus laevis oocytes, co-injected with amber suppressor tRNA (Yam) and AzF-RS
T6 sequence (Q01097 27-1482, other chains not shown): as above
Experimental: as §1, §2, §3, §4

## [Zn+2] [zinc]
[1]
  Zn2+ Hill slope (nH): 0.64 ± 0.10 and 0.70 ± 0.03 and 0.77 ± 0.05
  Izn/Io 1 nM: 0.90 ± 0.01 and 0.90 ± 0.05 and 0.86 ± 0.08
  Izn/Io 10 nM: 0.68 ± 0.01 and 0.68 ± 0.04 and 0.68 ± 0.07
  Izn/Io 50 nM: 0.45 ± 0.02 and 0.45 ± 0.05
  Izn/Io 500 nM: 0.31 ± 0.02 and 0.33 ± 0.04
  Izn/Io 1000 nM: 0.30 ± 0.06 and 0.28 ± 0.04 and 0.30 ± 0.03
[1]; +GNE (100 µM GNE-3419)
  Izn/Io 1 nM: 0.97 ± 0.02
  Izn/Io 10 nM: 0.88 ± 0.05
  Izn/Io 50 nM: 0.76 ± 0.08
  Izn/Io 500 nM: 0.65 ± 0.07
  Izn/Io 1000 nM: 0.58 ± 0.02
[1]; fraction
  Zn2+ maximal inhibition: 0.74 ± 0.05
[1]; in the presence of 100 µM GNE-3419
  Zn2+ Hill slope (nH): 0.62 ± 0.17
[1]; read-out: Zn2+ IC50
  IC50: 12 nM and 15.3 nM and 13 nM
[2]; after UV
  IC50: 7.69 ± 0.17 nM
[2]; before UV
  IC50: 7.43 ± 1.1 nM
[3]; +UV
  Izn/Io 1 nM: 0.94 ± 0.01
  Izn/Io 10 nM: 0.70 ± 0.02
  Izn/Io 1000 nM: 0.48 ± 0.04
[3]; -UV
  Izn/Io 1 nM: 0.91 ± 0.02
  Izn/Io 10 nM: 0.60 ± 0.01
  Izn/Io 1000 nM: 0.30 ± 0.03
[3]; after UV
  Zn2+ Hill slope (nH): 1.05 ± 0.07
  Zn2+ maximal inhibition: 0.52 ± 0.04
[3]; before UV
  Zn2+ Hill slope (nH): 0.99 ± 0.09
  Zn2+ maximal inhibition: 0.70 ± 0.03
[4]
  Zn2+ Hill slope (nH): 1.08 ± 0.04 and 1.20 ± 0.04 and 0.96 ± 0.10
[4]; 0.1 μM zinc
  Izn/Io 0.1 μM: 0.80 ± 0.02 and 0.87 ± 0.02 and 0.78 ± 0.01
[4]; 0.3 μM zinc
  Izn/Io 0.3 μM: 0.54 ± 0.03
[4]; 1 μM zinc
  Izn/Io 1 μM: 0.39 ± 0.005 and 0.46 ± 0.03 and 0.37 ± 0.03
[4]; 3 μM zinc
  Izn/Io 3 μM: 0.18 ± 0.09
[4]; read-out: Zn2+ IC50
  IC50: 720 nM and 970 nM and 590 nM
[5]; after UV
  IC50: 7960 ± 160 nM
[5]; before UV
  IC50: 540 ± 10 nM
[6]; +UV
  Izn/Io 0.1 μM: 0.97 ± 0.02
  Izn/Io 1 μM: 0.86 ± 0.03
  Izn/Io 10 μM: 0.45 ± 0.08
[6]; -UV
  Izn/Io 0.1 μM: 0.73 ± 0.09
  Izn/Io 1 μM: 0.33 ± 0.05
  Izn/Io 10 μM: 0.04 ± 0.01
[6]; after UV
  Zn2+ Hill slope (nH): 0.91 ± 0.02
[6]; before UV
  Zn2+ Hill slope (nH): 1.02 ± 0.02
[6]; post-UV vs pre-UV
  increase in zinc IC50 following UV treatment: ~ 15 fold
